Experimental data: ChEMBL document CHEMBL4765339, “Design, synthesis, and biological evaluation of 4-substituted-3,4-dihydrobenzo[h]quinoline-2,5,6(1H)-triones as NQO1-directed antitumor agents” (Eur J Med Chem, 2020)

Legend:
[1] = target: NAD(P)H dehydrogenase [quinone] 1 (Homo sapiens) (UniProt P15559); test: Substrate activity at recombinant human C-terminal His-tagged NQO1 (1 to 274 residues) expressed in Escherichia coli assessed as enzyme activity by measuring oxidation of NADPH incubated for 5 mins measured per micromol of enzyme every 5 sec for 1 mins by UV-visible spectrophotometry
HepG2 [2] = test: Cytotoxicity against human HepG2 cells assessed as reduction in cell growth incubated for 48 hrs by MTT assay; format: functional
A549 [3] = test: Cytotoxicity against human A549 cells assessed as reduction in cell growth incubated for 48 hrs by MTT assay; format: functional
MCF7 = test: Cytotoxicity against NQO1-rich human MCF7 cells assessed as reduction in cell growth incubated for 48 hrs by MTT assay; format: functional
HepG2 [4] = test: Cytotoxicity against human HepG2 cells assessed as reduction in cell growth pretreated for 1 hr with ROS scavenger, N-acetyl cysteine followed by incubation with compound for 48 hrs by MTT assay; format: functional
A549 [5] = test: Cytotoxicity against human A549 cells assessed as reduction in cell growth pretreated for 1 hr with ROS scavenger, N-acetyl cysteine followed by incubation with compound for 48 hrs by MTT assay; format: functional
[6] = Selectivity index, ratio of GI50 for human A549 cells pretreated for 1 hr with NQO1 inhibitor, dicoumarol followed by incubation with compound for 48 hrs to GI50 for human A549 cells measured after 48 hrs by MTT assay; format: functional
A549 [7] = test: Cytotoxicity against human A549 cells assessed as reduction in cell growth pretreated for 1 hr with NQO1 inhibitor, dicoumarol followed by incubation with compound for 48 hrs by MTT assay; format: functional
[8] = Selectivity index, ratio of GI50 for human HepG2 cells pretreated for 1 hr with ROS scavenger, N-acetyl cysteine followed by incubation with compound for 48 hrs to GI50 for human HepG2 cells measured after 48 hrs by MTT assay; format: functional
[9] = Cytotoxicity against human L02 cells assessed as reduction in cell growth incubated for 48 hrs by MTT assay; format: cell-based
HepG2 [10] = test: Antitumor activity against human HepG2 cells xenografted in athymic nude mouse assessed as inhibition of tumor growth at 20 mg/kg, iv administered once every 2 days for 19 days by caliper analysis relative to control; format: functional; conditions: 456 h, time 19 day
HepG2 [11] = test: Cytotoxicity against human HepG2 cells assessed as reduction in cell growth pretreated for 1 hr with NQO1 inhibitor, dicoumarol followed by incubation with compound for 48 hrs by MTT assay; format: functional
HepG2 [12] = test: Induction of ROS generation in human HepG2 cells at 5 uM by DCFH-DA staining based flow cytometry analysis; format: functional, cell-based; conditions: time 3-5 hrs, TDE = time-dependent effect
[13] = Selectivity index, ratio of GI50 for human HepG2 cells pretreated for 1 hr with NQO1 inhibitor, dicoumarol followed by incubation with compound for 48 hrs to GI50 for human HepG2 cells measured after 48 hrs by MTT assay; format: functional
[14] = Selectivity index, ratio of GI50 for human A549 cells pretreated for 1 hr with ROS scavenger, N-acetyl cysteine followed by incubation with compound for 48 hrs to GI50 for human A549 cells measured after 48 hrs by MTT assay; format: functional

Activity [1] | SMILES | also measured
613 µmol/min | O=C1CC(c2ccco2)C2=C(N1)c1ccccc1C(=O)C2=O (stereo not drawn) | 
684 µmol/min | COc1cc(C2CC(=O)NC3=C2C(=O)C(=O)c2ccccc23)cc(OC)c1OC (stereo not drawn) | 
448 µmol/min | Cc1ccccc1C1CC(=O)NC2=C1C(=O)C(=O)c1ccccc12 (stereo not drawn) | 
333 µmol/min | Cc1cccc(C2CC(=O)NC3=C2C(=O)C(=O)c2ccccc23)c1 (stereo not drawn) | 
786 µmol/min | CC(C)C1CC(=O)NC2=C1C(=O)C(=O)c1ccccc12 (stereo not drawn) | 
175 µmol/min | CCCCCC1CC(=O)NC2=C1C(=O)C(=O)c1ccccc12 (stereo not drawn) | 
586 µmol/min | COc1cccc(C2CC(=O)NC3=C2C(=O)C(=O)c2ccccc23)c1 (stereo not drawn) | 
392 µmol/min | O=C1CC(c2ccc(F)cc2)C2=C(N1)c1ccccc1C(=O)C2=O (stereo not drawn) | 
1030 µmol/min | O=C1CC(c2cccc(C(F)(F)F)c2)C2=C(N1)c1ccccc1C(=O)C2=O (stereo not drawn) | GI50 (HepG2 [2]): 4.24 µM; GI50 (A549 [3]): 12.6 µM; GI50 (MCF7): 8.96 µM
354 µmol/min | COc1ccccc1C1CC(=O)NC2=C1C(=O)C(=O)c1ccccc12 (stereo not drawn) | 
621 µmol/min | O=C1CC(c2cccs2)C2=C(N1)c1ccccc1C(=O)C2=O (stereo not drawn) | 
486 µmol/min | CCCC1CC(=O)NC2=C1C(=O)C(=O)c1ccccc12 (stereo not drawn) | 
467 µmol/min | O=C1CC(c2ccccc2Cl)C2=C(N1)c1ccccc1C(=O)C2=O (stereo not drawn) | 
195 µmol/min | O=C1CC(c2cc([N+](=O)[O-])ccc2Cl)C2=C(N1)c1ccccc1C(=O)C2=O (stereo not drawn) | 
1440 µmol/min | COc1cc(C2CC(=O)NC3=C2C(=O)C(=O)c2ccccc23)ccc1O (stereo not drawn) | GI50 (HepG2 [2]): 2.24 µM; GI50 (A549 [3]): 4.38 µM; GI50 (MCF7): 1.89 µM
 | CC1(C)CCC2=C(O1)c1ccccc1C(=O)C2=O [LAPACHONE] | GI50 (HepG2 [2]): 2.83 µM; GI50 (HepG2 [4]): 6.21 µM; GI50 (A549 [5]): 6.19 µM; RatioGI50 [6]: 2; GI50 (A549 [3]): 3.32 µM; GI50 (A549 [7]): 6 µM; RatioGI50 [8]: 2; GI50 at 48 h [9]: 4.54 µM; GI50 (MCF7): 4.17 µM; inhibition in vivo at 20 mg/kg (HepG2 [10]): 67.3%; GI50 (HepG2 [11]): 6.3 µM; Activity (HepG2 [12]): Tde; RatioGI50 [13]: 2; RatioGI50 [14]: 2
557 µmol/min | O=C1CC(c2ccc(Cl)cc2)C2=C(N1)c1ccccc1C(=O)C2=O (stereo not drawn) | 
160 µmol/min | O=C1CC(c2c(F)cccc2F)C2=C(N1)c1ccccc1C(=O)C2=O (stereo not drawn) | 
509 µmol/min | O=C1CC(c2cccc(O)c2)C2=C(N1)c1ccccc1C(=O)C2=O (stereo not drawn) | 
1360 µmol/min | O=C1CC(c2ccccc2F)C2=C(N1)c1ccccc1C(=O)C2=O (stereo not drawn) | GI50 (HepG2 [2]): 2.57 µM; GI50 (A549 [3]): 3.89 µM; GI50 (MCF7): 2.3 µM
194 µmol/min | COc1cc(OC)cc(C2CC(=O)NC3=C2C(=O)C(=O)c2ccccc23)c1 (stereo not drawn) | 
936 µmol/min | O=C1CC(c2ccc(F)cc2F)C2=C(N1)c1ccccc1C(=O)C2=O (stereo not drawn) | 
180 µmol/min | COc1ccc(OC)c(C2CC(=O)NC3=C2C(=O)C(=O)c2ccccc23)c1 (stereo not drawn) | 
283 µmol/min | O=C1CC(C2CCCCC2)C2=C(N1)c1ccccc1C(=O)C2=O (stereo not drawn) | 
491 µmol/min | O=C1CC(C2CCCC2)C2=C(N1)c1ccccc1C(=O)C2=O (stereo not drawn) | 
192 µmol/min | COc1ccc(C2CC(=O)NC3=C2C(=O)C(=O)c2ccccc23)cc1F (stereo not drawn) | 
760 µmol/min | O=C1CC(c2ccc(Cl)cc2Cl)C2=C(N1)c1ccccc1C(=O)C2=O (stereo not drawn) | GI50 (HepG2 [2]): 3.27 µM; GI50 (A549 [3]): 3.13 µM; GI50 (MCF7): 8.81 µM
182 µmol/min | O=C1CC(c2ccc([N+](=O)[O-])cc2)C2=C(N1)c1ccccc1C(=O)C2=O (stereo not drawn) | 
364 µmol/min | O=C1CC(c2ccccc2)C2=C(N1)c1ccccc1C(=O)C2=O (stereo not drawn) | GI50 (HepG2 [2]): 3.09 µM; GI50 (A549 [3]): 11.7 µM; GI50 (MCF7): 15.3 µM
275 µmol/min | Cc1ccc(C2CC(=O)NC3=C2C(=O)C(=O)c2ccccc23)cc1 (stereo not drawn) | 
